Experimental data reported in patent US20230085307A1, “PYRIDAZINONE COMPOUND AND HERBICIDE” (NISSAN CHEMICAL CORPORATION, priority 2019, published 2023).

What was measured:
late watergrass = test: Test Example 1: herbicidal activity, application before weed generation under submerged conditions (Table 16, symbol A); type: in vivo, late watergrass (Echinochloa oryzicola); conditions: for Herbicidal effect, A: late watergrass: amount of applied herbicide 320 g/ha
How it was run: (§1)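 Emulsion formulation, water-diluted to set dose, was put onto the flooded surface (4 cm depth, alluvial soil) the same day weeds were sown and 2.5-leaf rice transplanted. After 3 weeks at 25-30 °C under glass, each species was rated 0 (≤5% kill) to 5 (≥90% kill).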

Japanese bulrush = test: Test Example 1: herbicidal activity, application before weed generation under submerged conditions (Table 16, symbol B); type: in vivo, Japanese bulrush (Schoenoplectus juncoides); conditions: for Herbicidal effect, B: Japanese bulrush: amount of applied herbicide 320 g/ha
How it was run: as §1

chickweed = test: Test Example 5: herbicidal effect by foliage application, plastic box (Table 20, symbol P); type: in vivo, common chickweed (Stellaria media); conditions: evaluated three weeks after application
How it was run: (§2)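 Foliar spray test: emulsion formulation diluted in water to a set application rate, sprayed onto 14-day-old plants raised in diluvial soil at 25° C to 30° C under glass. Both herbicidal effect and crop effect rated visually three weeks later.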

Chinese sprangletop = test: Test Example 3: herbicidal effect by foliage application, Wagner pot (Table 18, symbol D); type: in vivo, chinese sprangletop (Leptochloa chinensis); conditions: 320 g/ha
How it was run: (§3)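 Plants were sown in alluvial soil held under 0.1–0.5 cm standing water and grown 14 days in a greenhouse at 25–30 °C. An emulsifiable formulation, water-diluted to the set dose, was then sprayed onto the foliage, and effects were scored three weeks later using previously defined criteria.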

persian speedwell = test: Test Example 5: herbicidal effect by foliage application, plastic box (Table 20, symbol R); type: in vivo, Persian speedwell (Veronica persica); conditions: evaluated three weeks after application
How it was run: as §2

green foxtail = test: Test Example 5: herbicidal effect by foliage application, plastic box (Table 20, symbol G); type: in vivo, green foxtail (Setaria viridis); conditions: evaluated three weeks after application
How it was run: as §2

wild oat = test: Test Example 5: herbicidal effect by foliage application, plastic box (Table 20, symbol I); type: in vivo, wild oat (Avena fatua); conditions: evaluated three weeks after application
How it was run: as §2

barnyard grass [1] = test: Test Example 3: herbicidal effect by foliage application, Wagner pot (Table 18, symbol H); type: in vivo, barnyard grass (Echinochloa crus-galli); conditions: 320 g/ha
How it was run: as §3

redroot pigweed = test: Test Example 5: herbicidal effect by foliage application, plastic box (Table 20, symbol N); type: in vivo, redroot pigweed (Amaranthus retroflexus); conditions: evaluated three weeks after application
How it was run: as §2

southern crabgrass = test: Test Example 5: herbicidal effect by foliage application, plastic box (Table 20, symbol F); type: in vivo, southern crabgrass (Digitaria ciliaris); conditions: evaluated three weeks after application
How it was run: as §2

oval-leafed pondweed = test: Test Example 1: herbicidal activity, application before weed generation under submerged conditions (Table 16, symbol C); type: in vivo, oval-leafed pondweed (Monochoria vaginalis); conditions: for Herbicidal effect, C: oval-leafed pondweed: amount of applied herbicide 320 g/ha
How it was run: as §1

barnyard grass [2] = test: Test Example 5: herbicidal effect by foliage application, plastic box (Table 20, symbol H); type: in vivo, barnyard grass (Echinochloa crus-galli); conditions: evaluated three weeks after application
How it was run: as §2

windgrass = test: Test Example 5: herbicidal effect by foliage application, plastic box (Table 20, symbol L); type: in vivo, windgrass (Apera spica-venti); conditions: evaluated three weeks after application
How it was run: as §2

Italian ryegrass = test: Test Example 5: herbicidal effect by foliage application, plastic box (Table 20, symbol K); type: in vivo, Italian ryegrass (Lolium multiflorum); conditions: evaluated three weeks after application
How it was run: as §2

rice flat sedge = test: Test Example 3: herbicidal effect by foliage application, Wagner pot (Table 18, symbol E); type: in vivo, rice flat sedge (Cyperus iria); conditions: 320 g/ha
How it was run: as §3

lambsquarters = test: Test Example 5: herbicidal effect by foliage application, plastic box (Table 20, symbol O); type: in vivo, lambsquarters (Chenopodium album); conditions: evaluated three weeks after application
How it was run: as §2

blackgrass = test: Test Example 5: herbicidal effect by foliage application, plastic box (Table 20, symbol J); type: in vivo, blackgrass (Alopecurus myosuroides); conditions: evaluated three weeks after application
How it was run: as §2

velvetleaf = test: Test Example 5: herbicidal effect by foliage application, plastic box (Table 20, symbol M); type: in vivo, velvetleaf (Abutilon theophrasti); conditions: evaluated three weeks after application
How it was run: as §2

[3] = 320 g/ha, foliage application after 14-day growth
[4] = foliage application, AAH 320 g/ha
[5] = amount of applied herbicide 320 g/ha, foliage application after 14-day growth

COc1ccc(-c2sc3c(F)cccc3c2-c2c(O)c(C)nn(C)c2=O)cc1OC [4-013]
Herbicidal effect, A: late watergrass (late watergrass): 3 (Herbicidal rate of 40% or more and less than 70%) | Herbicidal effect, B: Japanese bulrush (Japanese bulrush): 0 (Herbicidal rate of 5% or less (almost no effect)) | herbicidal effect on P: chickweed (evaluation grade 0-5) (chickweed; [3]): 5 (Herbicidal rate of 90% or more (almost completely withered)) | herbicidal effect on Chinese sprangletop (D) (Chinese sprangletop): 3 (Herbicidal rate of 40% or more and less than 70%) | herbicidal effect on R: persian speedwell (evaluation grade 0-5) (persian speedwell; [3]): 5 (Herbicidal rate of 90% or more (almost completely withered)) | herbicidal effect on G: green foxtail (evaluation grade 0-5) (green foxtail; [3]): 5 (Herbicidal rate of 90% or more (almost completely withered)) | herbicidal effect on I: wild oat (evaluation grade 0-5) (wild oat; [3]): 0 (Herbicidal rate of 5% or less (almost no effect)) | herbicidal effect on barnyard grass (H) (barnyard grass [1]): 3 (Herbicidal rate of 40% or more and less than 70%) | herbicidal effect on N: redroot pigweed (evaluation grade 0-5) (redroot pigweed; [3]): 0 (Herbicidal rate of 5% or less (almost no effect)) | herbicidal effect on F: southern crabgrass (evaluation grade 0-5) (southern crabgrass; [3]): 1 (Herbicidal rate of 5% or more and less than 20%) | Herbicidal effect, C: oval-leafed pondweed (oval-leafed pondweed): 3 (Herbicidal rate of 40% or more and less than 70%) | herbicidal effect on H: barnyard grass (evaluation grade 0-5) (barnyard grass [2]; [3]): 1 (Herbicidal rate of 5% or more and less than 20%) | herbicidal effect on L: windgrass (evaluation grade 0-5) (windgrass; [3]): 0 (Herbicidal rate of 5% or less (almost no effect)) | herbicidal effect on K: Italian ryegrass (evaluation grade 0-5) (Italian ryegrass; [3]): 4 (Herbicidal rate of 70% or more and less than 90%) | herbicidal effect on rice flat sedge (E) (rice flat sedge): 4 (Herbicidal rate of 70% or more and less than 90%) | herbicidal effect on O: lambsquarters (evaluation grade 0-5) (lambsquarters; [3]): 0 (Herbicidal rate of 5% or less (almost no effect)) | herbicidal effect on J: blackgrass (evaluation grade 0-5) (blackgrass; [3]): 3 (Herbicidal rate of 40% or more and less than 70%) | herbicidal effect on M: velvetleaf (evaluation grade 0-5) (velvetleaf; [3]): 3 (Herbicidal rate of 40% or more and less than 70%)

Cc1nn(C)c(=O)c(-c2c(-c3cccc(OC(C)C#N)c3)sc3ccc(F)cc23)c1O (centres unmarked) [2-277]
Herbicidal effect on A: late watergrass (grade 0-5) (late watergrass; 320 g/ha applied herbicide): 1 (Herbicidal rate of 5% or more and less than 20%) | Herbicidal effect on B: Japanese bulrush (grade 0-5) (Japanese bulrush; 320 g/ha applied herbicide): 0 (Herbicidal rate of 5% or less (almost no effect)) | P: chickweed, herbicidal effect (criteria 0-5) (chickweed; [4]): 5 (Herbicidal rate of 90% or more (almost completely withered)) | R: persian speedwell, herbicidal effect (criteria 0-5) (persian speedwell; [4]): 2 (Herbicidal rate of 20% or more and less than 40%) | G: green foxtail, herbicidal effect (criteria 0-5) (green foxtail; [4]): 0 (Herbicidal rate of 5% or less (almost no effect)) | I: wild oat, herbicidal effect (criteria 0-5) (wild oat; [4]): 0 (Herbicidal rate of 5% or less (almost no effect)) | N: redroot pigweed, herbicidal effect (criteria 0-5) (redroot pigweed; [4]): 2 (Herbicidal rate of 20% or more and less than 40%) | F: southern crabgrass, herbicidal effect (criteria 0-5) (southern crabgrass; [4]): 0 (Herbicidal rate of 5% or less (almost no effect)) | Herbicidal effect on C: oval-leafed pondweed (grade 0-5) (oval-leafed pondweed; 320 g/ha applied herbicide): 2 (Herbicidal rate of 20% or more and less than 40%) | H: barnyard grass, herbicidal effect (criteria 0-5) (barnyard grass [2]; [4]): 0 (Herbicidal rate of 5% or less (almost no effect)) | L: windgrass, herbicidal effect (criteria 0-5) (windgrass; [4]): 0 (Herbicidal rate of 5% or less (almost no effect)) | K: Italian ryegrass, herbicidal effect (criteria 0-5) (Italian ryegrass; [4]): 0 (Herbicidal rate of 5% or less (almost no effect)) | O: lambsquarters, herbicidal effect (criteria 0-5) (lambsquarters; [4]): 0 (Herbicidal rate of 5% or less (almost no effect)) | J: blackgrass, herbicidal effect (criteria 0-5) (blackgrass; [4]): 0 (Herbicidal rate of 5% or less (almost no effect)) | M: velvetleaf, herbicidal effect (criteria 0-5) (velvetleaf; [4]): 0 (Herbicidal rate of 5% or less (almost no effect))

CCCC(=O)Oc1c(C)nn(C)c(=O)c1-c1c(-c2ccc(OC)c(OC)c2)sc2cc(F)c(F)cc12 [5-034]
Herbicidal effect, A: late watergrass (late watergrass): 3 (Herbicidal rate of 40% or more and less than 70%) | Herbicidal effect, B: Japanese bulrush (Japanese bulrush): 0 (Herbicidal rate of 5% or less (almost no effect)) | Herbicidal effect by foliage application, P: chickweed (chickweed; [5]): 5 (Herbicidal rate of 90% or more (almost completely withered)) | herbicidal effect on Chinese sprangletop (D) (Chinese sprangletop): 1 (Herbicidal rate of 5% or more and less than 20%) | Herbicidal effect by foliage application, R: persian speedwell (persian speedwell; [5]): 4 (Herbicidal rate of 70% or more and less than 90%) | Herbicidal effect by foliage application, G: green foxtail (green foxtail; [5]): 3 (Herbicidal rate of 40% or more and less than 70%) | Herbicidal effect by foliage application, I: wild oat (wild oat; [5]): 0 (Herbicidal rate of 5% or less (almost no effect)) | herbicidal effect on barnyard grass (H) (barnyard grass [1]): 4 (Herbicidal rate of 70% or more and less than 90%) | Herbicidal effect by foliage application, N: redroot pigweed (redroot pigweed; [5]): 3 (Herbicidal rate of 40% or more and less than 70%) | Herbicidal effect by foliage application, F: southern crabgrass (southern crabgrass; [5]): 0 (Herbicidal rate of 5% or less (almost no effect)) | Herbicidal effect, C: oval-leafed pondweed (oval-leafed pondweed): 0 (Herbicidal rate of 5% or less (almost no effect)) | Herbicidal effect by foliage application, H: barnyard grass (barnyard grass [2]; [5]): 0 (Herbicidal rate of 5% or less (almost no effect)) | Herbicidal effect by foliage application, K: Italian ryegrass (Italian ryegrass; [5]): 0 (Herbicidal rate of 5% or less (almost no effect)) | herbicidal effect on rice flat sedge (E) (rice flat sedge): 0 (Herbicidal rate of 5% or less (almost no effect)) | Herbicidal effect by foliage application, O: lambsquarters (lambsquarters; [5]): 4 (Herbicidal rate of 70% or more and less than 90%) | Herbicidal effect by foliage application, J: blackgrass (blackgrass; [5]): 0 (Herbicidal rate of 5% or less (almost no effect)) | Herbicidal effect by foliage application, M: velvetleaf (velvetleaf; [5]): 3 (Herbicidal rate of 40% or more and less than 70%)
